# Values joined by “and” are separate entries in the source; they are usually repeats but may differ in a detail not shown here. Equal entries are not always repeated.
# Tests used:
# [1] = system: colon cancer cell line HCT-116; assay: Cytotoxicity assay, colon cancer cells; assay type: cell-based; conditions: HCT-116, 48 hours, FIG. 2 lower panel
# Procedure: 5×10^3 of normal colon fibroblast cell line CCD-18Co or colon cancer cell line HCT-116 were cultured in a 96-well plate at 37° C., 5% CO2. Incubator and observed under a microscope after 48 hours.
# [2] = system: metastatic colorectal cancer refractory to standard therapy; assay: Phase II clinical trial of calcium lactate (cachexia, tumor response, survival, safety); assay type: in vivo, patients; design: key to Overall tumor response: SD means that tumor growth has stopped; PD means that the tumor has increased by 20% or more
# Procedure: The clinical study was a phase II clinical trial targeting patients with metastatic colorectal cancer refractory to standard therapy.
# Twenty-two patients were enrolled, and 16 completed the trial (see Table 1).
# The administration method was subcutaneous injection, and the administration dose was 100 mg/day. One cycle consisted of 4 weeks of treatment with 5 days of I.P. administration subcutaneously once daily followed by 2 days of rest.
# Tumor assessment was performed every 2 cycles compared to baseline.
# The clinical outcomes were the primary outcome of disease control rate, and the secondary outcomes were overall survival, progression-free survival, and safety. Body weight was measured 1 month after the start of administration and expressed as the increase or decrease in body weight before and after administration. Tumor response was performed with a CT scan 2 months after the start of administration and expressed as the increase or decrease in tumor size before and after administration. SD means that tumor growth has stopped, and PD means that the tumor has increased by 20% or more.
# BMI and Weight TO were measured at the screening visit, and Weight T1mo and SLD changes in the target lesion were measured 1 and 2 months after IP administration, respectively. SLD is an abbreviation for sum of longest diameters. SD and PD are abbreviations for stable disease and progressive disease, respectively.
# [3] = Tissue pharmacokinetics (lactate concentration in muscle and tumor tissue); assay type: in vivo, Balb/c nude mice; conditions: HCT-116 tumor mice, 20 mg/kg S.C.
# Procedure: Balb/c nude mice were obtained and 1×10^6 HCT-116 was implanted subcutaneously to grow tumors. […] Each obtained tissue was analyzed for changes in lactate concentration over time using a lactate analysis kit.
# Hif-1α = assay: Western blot of Hif-1α expression in cancer cells; assay type: cell-based; conditions: for Hif-1α expression: hypoxia 1% O2, FIG. 4
# Procedure: Then, Hif-1α antibody was diluted in TBST and attached to the protein on the membrane, washed with TBST, and treated with secondary antibody, and the band results were confirmed using X-ray film or Gel doc equipment.
# [4] = 8 patients with weight loss including cachexia
# [5] = of 16 patients who completed the trial
compound,measurement,setting,value
CC(O)C(=O)[O-].CC(O)C(=O)[O-].[Ca+2] (stereo not drawn) [calcium lactate],effect on survival in colorectal cancer cells,[1],cancer cell death can be observed
same,efficacy of preventing patients from cachexia,[2]; 2 out of 16 patients progressed to cancerous cachexia,87.5%
same,median overall survival,[2]; 8 patients with maintained or increased weight,8 months
same,median increase in tumor size,[2]; [4],17%
same,median overall survival,[2]; [4],4.15 months
same,median increase in tumor size,[2]; 8 patients with weight maintenance or increase,9.5%
same,disease control rate,[2]; 16 patients,68.75%
same,drug efficacy for tumor growth arrest,"[2]; 16 patients, metastatic stage",68.8%
same,Overall survival,[2]; individual patient,2.4 months and 4.4 months and 6 months and 14.9 months and 7.6 months and 2.7 months and 3.6 months and 7.9 months and 23 months and 8.1 months and 5.1 months and 6.3 months and 16.7 months and 25.8 months
same,SLD change at target lesions,"[2]; individual patient, CT scan 2 months after start, RECIST 1.1",12.5% and 10.8% and 15.7% and 12.6% and 9.1% and 34.7% and 17.7% and 29.0% and −2.9% and 129.2% and 3.3% and 15.6% and 10.0% and 18.4% and 2.2% and 6.2%
same,Overall tumor response,"[2]; individual patient, RECIST 1.1",SD (11×) and PD (PD means that the tumor has increased by 20% or more) (5×)
same,Weight change,"[2]; individual patient, screening to 1 month of treatment, 100 mg/day subcutaneous",1.4% (3×) and −4.6% and 1.1% and 6.0% and −1.3% and −3.6% and 0.0% and −6.7% and −3.4% and 3.4% and −4.9% and 10.6% and −0.8%
same,"Cachexia, % of patients",[2]; [5],12.5%
same,"Cachexia, number of patients",[2]; [5],2
same,"Weight gain (maintained or increased weight), number of patients",[2]; [5],8
same,"Weight gain, % of patients",[2]; [5],50.0%
same,"Weight loss (not corresponding to cachexia), number of patients",[2]; [5],6
same,"Weight loss, % of patients",[2]; [5],37.5%
same,number of patients with stable disease,[2]; out of 16 patients,11
same,DLT (dose limiting toxicity),[2]; phase 2 clinical trials,Non-DLT
same,concentration of lactate in muscle tissue,[3],no change
same,concentration of lactate in tumor tissues,[3]; 2 hours after administration,increases
same,Hif-1α expression,Hif-1α; AsPC-1 (pancreatic cancer),reduced
same,Hif-1α expression,Hif-1α; H1975 (lung cancer),reduced
same,Hif-1α expression,Hif-1α; HCT-116 (colon cancer),reduced
same,Hif-1α expression,Hif-1α; MDA-MB-231 (breast cancer),reduced
same,expression of Hif-1α protein,"Hif-1α; colon cancer cells, hypoxia, FIG. 3 upper panel",reduced

# From patent US20260007624A1, “COMPOSITION FOR AMELIORATING OR TREATING CANCER CACHEXIA […] LACTATE AS ACTIVE INGREDIENT” (METIMEDI PHARMACEUTICALS CO., LTD., priority 2022, published 2026)
